Laboratory results published in publication PMC11714206, “Massively Parallel Screening of Toll/Interleukin‐1 Receptor (TIR)‐Derived Peptides Reveals Multiple Toll‐Like Receptors (TLRs)‐Targeting Immunomodulatory Peptides” (Advanced Science, 2024).

Biological target: T1, MyD88^TIR (Homo sapiens, UniProt Q99836)
T1 construct: MyD88 (residues 148–296); 6xHis; made in house; host or cells: E. coli BL21 (DE3)
Assay: T‐Surf phage library (P8 and P3) selection against MyD88^TIR, four rounds, NGS read counts
Assay type: binding
Conditions: for Population: 4th round of selection against MyD88 TIR, share of NGS reads; for P3_MyD88 Rank (after) / P3_MyD88 Rank (before): P3 library; for P8_MyD88 Rank (after) / P8_MyD88 Rank (before): P8 library
Description: T‐Surf libraries were screened against the immobilized TIR domains of two major human TLR adaptor proteins, MAL^TIR and MyD88^TIR, allowing cross‐species selection of TIR‐binding motifs with 190 946 TIR‐derived peptides in a single binding assay (Scheme 1). Enriched phage pools from the fourth round of selection were analyzed using NGS after barcoding the peptide‐coding regions of the phage pools.
Phage display screening was performed by coating two wells of a 96‐well plate (Maxisorp, Thermo Fisher Scientific) with 100 µL of 5 µg mL^−1 TIR domains overnight; then, the coated wells were blocked with 200 µL of blocking buffer (0.2% BSA in PBS) and set aside for 1 h at 4 °C with gentle shaking. Next, 100 µL of the phage library was added to the wells and incubated for 1 h at room temperature (RT; 20 – 22 °C) with gentle shaking. The plate was washed four times with PBS containing 0.5% Tween‐20; the bound phages were eluted by adding 100 µL of 100 mM HCl to each well. The elute was neutralized with 10 µL of 1.0 M Tris‐HCl (pH 11.0). E. coli TG1 cells were grown to the log phase (A600 = ≈0.6), and 1 mL of the culture was incubated with 100 µL of the eluted phages for 30 min at 37 °C, with shaking at 200 rpm. Next, 1 µL of M13KO7 helper phages was added, followed by incubation for 45 min at 37 °C, with shaking. Subsequently, the cells were transferred to 25 mL of 2× yeast extract tryptone/carbenicillin/kanamycin medium and incubated overnight at 37 °C with shaking at 200 rpm. The amplified phages were precipitated with 20% PEG‐8000/2.5 M NaCl to be used for the next round of selection.
The naïve T‐Surf libraries in P8 and P3 and the enriched phage pools after four rounds were barcoded for NGS as previously described.^[ [59] ^] Briefly, 5 µL of the phage pool was used as a template for 20 cycles of a 50 µL PCR reaction using […] each of forward and reverse barcoded primers and PrimeSTAR Max DNA Polymerase. The PCR products were purified using Expin Gel SV (GeneAll). The NGS samples were quantified using qPCR, following the qPCR Quantification Protocol Guide (KAPA Library Quantification kits for Illumina Sequencing Platform), and qualified using the TapeStation High Sensitivity D1000 ScreenTape (Agilent Technologies). The indexed libraries were further sequenced by Macrogen (Seoul, Republic of Korea) using the NovaSeq platform (Illumina) with 100 bp paired‐end reads. The reads were demultiplexed by barcodes and filtered for an average Phred quality score of at least 30, followed by trimming the flanking consensus sequences using Cutadapt (version 2.3). Peptide sequence populations were analyzed according to the read counts.

[1] = P3_MyD88: rank by count after grouping
[2] = P3_MyD88: rank by count before grouping
[3] = P8_MyD88 pool: P8 T-Surf phage library
[4] = selection against MyD88 TIR, rank by count after grouping
[5] = selection against MyD88 TIR, rank by count before grouping
[6] = 4R selection against MyD88, rank after grouping
[7] = 4R selection against MyD88, rank before grouping
[8] = selection against MyD88, rank after grouping
[9] = selection against MyD88, rank before grouping
[10] = selection against MyD88, rank by count after grouping
[11] = selection against MyD88, rank by count before grouping
[12] = P8_MyD88: rank by NGS read count after grouping
[13] = P8_MyD88: rank by NGS read count before grouping
[14] = P8_MyD88: rank by count after grouping
[15] = P8_MyD88: rank by count before grouping

T1 sequence (Q99836 148-296): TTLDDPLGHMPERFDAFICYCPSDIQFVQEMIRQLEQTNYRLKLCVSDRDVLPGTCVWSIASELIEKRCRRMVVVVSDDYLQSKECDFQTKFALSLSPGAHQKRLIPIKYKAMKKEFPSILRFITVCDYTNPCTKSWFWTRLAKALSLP

## SELRVVDKETDKIQTPLKNA
[1]
  Rank (after): 412
[2]
  Rank (before): 3051

## DPQDLDWFYERLVSLFL
[3]
  Population: 0.02%

## SELRVEDDGSVIPLEM
[4]
  P3_MyD88 Rank (after): 201
[5]
  P3_MyD88 Rank (before): 3055

## SSFREGLWHLLQLSLK
[6]
  P3_MyD88 Rank (after): 584
[7]
  P3_MyD88 Rank (before): 3198

## VGKLKKGESFAPELLR
[4]
  P3_MyD88 Rank (after): 229
[5]
  P3_MyD88 Rank (before): 1765

## RKGDLISDELRIPLEE
[8]
  P3_MyD88 Rank (after): 526
[9]
  P3_MyD88 Rank (before): 2656

## LGYHWIVWEYLVGIKD
[6]
  P8_MyD88 Rank (after): 652
[7]
  P8_MyD88 Rank (before): 3245

## KNLSNELVSKNILTFM
[4]
  P3_MyD88 Rank (after): 260
[5]
  P3_MyD88 Rank (before): 3787

## PENDNGGENAFINHIV
[6]
  P3_MyD88 Rank (after): 635
[7]
  P3_MyD88 Rank (before): 2700

## YAFTCHLQRYLVQRGV
[1]
  Rank (after): 118
[2]
  Rank (before): 1545

## SAASDDFWDGLIRMIE
[8]
  P8_MyD88 Rank (after): 502
[9]
  P8_MyD88 Rank (before): 3704

## LAANEIRKEMKTLATI
[10]
  P3_MyD88 Rank (after): 680
[11]
  P3_MyD88 Rank (before): 2326

## YASSSWYLAELVHMPW
[12]
  Rank (after): 989
[13]
  Rank (before): 1854

## SSFREGLWRLLELSKN
P3_MyD88 pool: P3 T-Surf phage library
  Population: 0.00349%

## DPQDLEWFYERLVSLL
[3]
  Population: 0.0224%

## LGYHRIDWEYCVGIED
[12]
  Rank (after): 1020
[13]
  Rank (before): 3318

## KEVEGWRCADQSGEP
[6]
  P3_MyD88 Rank (after): 666
[7]
  P3_MyD88 Rank (before): 3653

## YTALPNSGFHTIRDNE
[8]
  P3_MyD88 Rank (after): 552
[9]
  P3_MyD88 Rank (before): 1712

## HWIDWVWDYLLPNLEGPAG
[6]
  P8_MyD88 Rank (after): 581
[7]
  P8_MyD88 Rank (before): 3518

## WALVELLHIRHARELF
[10]
  P8_MyD88 Rank (after): 709
[11]
  P8_MyD88 Rank (before): 1405

## SFSFPLDQLSYFLNLP
[14]
  Rank (after): 136
[15]
  Rank (before): 147
[3]
  Population: 0.0112%

## SELRVVDDGSVSPLVT
[1]
  Rank (after): 182
[2]
  Rank (before): 3029

## SSFREGLWRLQALSKK
[1]
  Rank (after): 458
[2]
  Rank (before): 3185

## YELDFSHFWLFEGPAG
[4]
  P8_MyD88 Rank (after): 245
[5]
  P8_MyD88 Rank (before): 538

## RISAFHQQLVMALKERLP
[4]
  P3_MyD88 Rank (after): 263
[5]
  P3_MyD88 Rank (before): 1105

## YLLLSVFQTICALRTE
[12]
  Rank (after): 963
[13]
  Rank (before): 1999

## YTAMTNSGFHTFRGND
[1]
  Rank (after): 429
[2]
  Rank (before): 1711

## LKVDSWRQALEKAGNL
[1]
  Rank (after): 117
[2]
  Rank (before): 2469

## LGYRWLDGEYFGGIED
[14]
  Rank (after): 462
[15]
  Rank (before): 3223

## WALDELLKILYVIATL
[8]
  P8_MyD88 Rank (after): 525
[9]
  P8_MyD88 Rank (before): 1480

## PQDLDWFYERLVSQM
[10]
  P8_MyD88 Rank (after): 716
[11]
  P8_MyD88 Rank (before): 3426

## TSHLHHAPRPNEIETL
[6]
  P3_MyD88 Rank (after): 653
[7]
  P3_MyD88 Rank (before): 3323

## SENYATSPWALDELLIAIEE
[8]
  P3_MyD88 Rank (after): 519
[9]
  P3_MyD88 Rank (before): 2979

## IDDDHLTYLVRLLLSLL
[8]
  P8_MyD88 Rank (after): 539
[9]
  P8_MyD88 Rank (before): 3634

## RISAFHKQLVMAVKAQ
[6]
  P3_MyD88 Rank (after): 674
[7]
  P3_MyD88 Rank (before): 2608

## NRWRNALTAAANLRGG
[8]
  P3_MyD88 Rank (after): 510
[9]
  P3_MyD88 Rank (before): 3457

## WALNELLKILQAKIFL
[12]
  Rank (after): 905
[13]
  Rank (before): 1547

## ERLFIETQNVNKDLIG
[4]
  P3_MyD88 Rank (after): 264
[5]
  P3_MyD88 Rank (before): 2209

## LGYHWIDWEYYVGTED
[14]
  Rank (after): 440
[15]
  Rank (before): 3301

## NELVRVWSSKANSRVG
[10]
  P3_MyD88 Rank (after): 716
[11]
  P3_MyD88 Rank (before): 3402

## WDFASNMAQFWDRRYY
[4]
  P8_MyD88 Rank (after): 283
[5]
  P8_MyD88 Rank (before): 1593
